# Experimental data taken from ChEMBL document CHEMBL5316344, “Homologation of the Alkyl Side Chain of Antimitotic Phenyl 4-(2-Oxo-3-alkylimidazolidin-1-yl)benzenesulfonate Prodrugs Selectively Targeting CYP1A1-Expressing Breast Cancers Improves Their Stability in Rodent Liver Microsomes” (J Med Chem, 2023).
# Activity calls are given as the source filed them. No cut-off for these calls is given here.
# What was measured:
# HT-1080 [1] = experiment: Antiproliferative activity against human HT-1080 cells transfected with empty vector assessed as cell growth inhibition incubated for 48 hrs by sulforhodamine B assay; format: functional, cell-based; settings: HT-1080, 48 h
# [2] = Stability in mouse liver microsomes assessed as intrinsic clearance incubated for 60 mins by HPLC analysis; format: ADME, Microsome; settings: read-out: CLH
# [3] = Stability in rat liver microsomes assessed as half life incubated for 60 mins by HPLC analysis; format: ADME, Microsome
# [4] = Selectivity ratio, ratio of IC50 for antiproliferative activity against human M21 cells to IC50 for antiproliferative activity against human MCF7 cells expressing CYP1A1; format: functional
# MCF7 [5] = experiment: Antiproliferative activity against human MCF7 cells expressing CYP1A1 assessed as cell growth inhibition incubated for 48 hrs by sulforhodamine B assay; format: functional, cell-based; settings: MCF7, 48 h
# Cytochrome P450 1A1 = target: T1, Cytochrome P450 1A1 (Homo sapiens, UniProt P04798); experiment: Binding affinity to human CYP1A1 assessed as inhibition of conversion of 7-ethoicyresorufin into fluorescent resorufin by measuring inhibition constant preincubated for 5 mins followed by […] addition measured every minute for 15 mins by EROD assay; format: ADME
# T1 sequence (P04798 whole entry): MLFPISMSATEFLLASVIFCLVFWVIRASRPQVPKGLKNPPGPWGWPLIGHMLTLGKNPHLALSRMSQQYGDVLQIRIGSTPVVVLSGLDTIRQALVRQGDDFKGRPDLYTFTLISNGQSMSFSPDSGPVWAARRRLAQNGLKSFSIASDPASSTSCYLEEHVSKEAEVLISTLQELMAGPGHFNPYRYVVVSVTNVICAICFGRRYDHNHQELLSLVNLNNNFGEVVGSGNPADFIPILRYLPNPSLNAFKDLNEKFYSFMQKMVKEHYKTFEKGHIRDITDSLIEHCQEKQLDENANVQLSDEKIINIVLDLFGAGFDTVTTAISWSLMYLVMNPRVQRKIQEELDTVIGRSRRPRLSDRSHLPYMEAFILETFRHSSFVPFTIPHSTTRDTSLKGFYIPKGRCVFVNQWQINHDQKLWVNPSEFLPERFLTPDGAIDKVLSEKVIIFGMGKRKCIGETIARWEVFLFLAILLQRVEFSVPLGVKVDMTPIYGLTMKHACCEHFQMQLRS
# [6] = Stability in mouse liver microsomes assessed as half life incubated for 60 mins by HPLC analysis; format: ADME, Microsome
# Tubulin (Homo sapiens) [7] = target: T2, Tubulin (Homo sapiens) (UniProt P68371+Q9H4B7+P0DPH7+P68366+Q13509+Q71U36+P04350+Q3ZCM7+P07437+P68363+Q9BQE3+Q6PEY2+Q13885+Q9BVA1+Q9BUF5); experiment: Disruption of microtubules in human MCF7 cells expressing CYP1A1 assessed as cytoskeleton disruption at 970 nM measured after 48 hrs by DAPI staining based fluorescence microscopic analysis; format: cell-based
# [8] = Stability in human liver microsomes assessed as half life incubated for 60 mins by HPLC analysis; format: ADME, Microsome
# [9] = Selectivity ratio, ratio of IC50 for antiproliferative activity against human HT-1080 cells transfected with empty vector to IC50 for antiproliferative activity against human HT-1080 cells expressing CYP1A1; format: functional
# MCF7 [10] = experiment: Induction of cell cycle arrest in human MCF7 cells expressing CYP1A1 assessed as accumulation of cells at G2/M phase at 690 nM incubated for 48 hrs by DAPI staining based flow cytometric analysis (reference value: 16+/-2 %); format: functional
# [11] = Selectivity ratio, ratio of IC50 for antiproliferative activity against human HT-1080 cells to IC50 for antiproliferative activity against human HT-1080 cells expressing CYP1A1; format: functional
# HT-1080 [12] = experiment: Antiproliferative activity against human HT-1080 cells assessed as cell growth inhibition incubated for 48 hrs by sulforhodamine B assay; format: functional, cell-based; settings: HT-1080, 48 h
# [13] = Stability in human liver microsomes assessed as intrinsic clearance incubated for 60 mins by HPLC analysis; format: ADME, Microsome; settings: read-out: CLH
# [14] = Selectivity ratio, ratio of IC50 for antiproliferative activity against human HT-29 cells to IC50 for antiproliferative activity against human MCF7 cells expressing CYP1A1; format: functional
# HT-29 = experiment: Antiproliferative activity against human HT-29 cells assessed as cell growth inhibition incubated for 48 hrs by sulforhodamine B assay; format: functional, cell-based; settings: HT-29, 48 h
# M21 = experiment: Antiproliferative activity against human M21 cells assessed as cell growth inhibition incubated for 48 hrs by sulforhodamine B assay; format: functional, cell-based; settings: M21, 48 h
# HT-1080 [15] = experiment: Antiproliferative activity against human HT-1080 cells expressing CYP1A1 assessed as cell growth inhibition incubated for 48 hrs by sulforhodamine B assay; format: functional, cell-based; settings: HT-1080, 48 h
# [16] = Stability in rat liver microsomes assessed as intrinsic clearance incubated for 60 mins by HPLC analysis; format: ADME, Microsome; settings: read-out: CLH
# MCF7 [17] = experiment: Induction of cell cycle arrest in human MCF7 cells expressing CYP1A1 assessed as accumulation of cells at S phase at 690 nM incubated for 48 hrs by DAPI staining based flow cytometric analysis (reference value: 11+/-1 %); format: functional
# MCF7 [18] = experiment: Induction of cell cycle arrest in human MCF7 cells expressing CYP1A1 assessed as accumulation of cells at G0/G1 phase at 690 nM incubated for 48 hrs by DAPI staining based flow cytometric analysis (reference value: 74+/-2 %); format: functional
# MCF7 [19] = experiment: Induction of cell cycle arrest in human MCF7 cells expressing CYP1A1 assessed as accumulation of cells at S phase at 145 nM incubated for 48 hrs by DAPI staining based flow cytometric analysis (reference value: 11+/-1 %); format: functional
# MCF7 [20] = experiment: Induction of cell cycle arrest in human MCF7 cells expressing CYP1A1 assessed as accumulation of cells at G2/M phase at 145 nM incubated for 48 hrs by DAPI staining based flow cytometric analysis (reference value: 16+/-2 %); format: functional
# MCF7 [21] = experiment: Induction of cell cycle arrest in human MCF7 cells expressing CYP1A1 assessed as accumulation of cells at G0/G1 phase at 145 nM incubated for 48 hrs by DAPI staining based flow cytometric analysis (reference value: 74+/-2 %); format: functional
# Tubulin (Homo sapiens) [22] = target: T2, Tubulin (Homo sapiens); experiment: Disruption of microtubules in human MCF7 cells expressing CYP1A1 assessed as cytoskeleton disruption at 65 nM measured after 48 hrs by DAPI staining based fluorescence microscopic analysis; format: cell-based
# MCF7 [23] = experiment: Induction of cell cycle arrest in human MCF7 cells expressing CYP1A1 assessed as accumulation of cells at G0/G1 phase at 1100 nM incubated for 48 hrs by DAPI staining based flow cytometric analysis (reference value: 74+/-2 %); format: functional
# Tubulin (Homo sapiens) [24] = target: T2, Tubulin (Homo sapiens); experiment: Disruption of microtubules in human MCF7 cells expressing CYP1A1 assessed as cytoskeleton disruption at 1305 nM measured after 48 hrs by DAPI staining based fluorescence microscopic analysis; format: cell-based
# MCF7 [25] = experiment: Induction of cell cycle arrest in human MCF7 cells expressing CYP1A1 assessed as accumulation of cells at S phase at 1100 nM incubated for 48 hrs by DAPI staining based flow cytometric analysis (reference value: 11+/-1 %); format: functional
# MCF7 [26] = experiment: Induction of cell cycle arrest in human MCF7 cells expressing CYP1A1 assessed as accumulation of cells at G2/M phase at 1100 nM incubated for 48 hrs by DAPI staining based flow cytometric analysis (reference value: 16+/-2 %); format: functional
SMILES,microsomal CLint [2],half-life [3],Ratio IC50 [4],IC50 (MCF7 [5]),half-life [6],half-life [8],microsomal CLint [13],Ratio IC50 [14],IC50 (HT-29),IC50 (M21),microsomal CLint [16],also measured
CCCCCN1CCN(c2ccc(S(=O)(=O)Oc3cccc(I)c3)cc2)C1=O,15 µL/min/mg,1.03 h,>90,140 nM,1.55 h,1.28 h,19 µL/min/mg,>90,> 12500 nM,> 12500 nM,24 µL/min/mg,IC50 (HT-1080 [1]): > 12500 nM; Ki (Cytochrome P450 1A1): 190 nM; Activity (Tubulin (Homo sapiens) [7]): Active; Ratio IC50 [9]: >417; Activity (MCF7 [10]): 45%; Ratio IC50 [11]: 137; IC50 (HT-1080 [12]): 4110 nM; IC50 (HT-1080 [15]): 30 nM; Activity (MCF7 [17]): 18%; Activity (MCF7 [18]): 37%
CCCCN1CCN(c2ccc(S(=O)(=O)Oc3cccc(Cl)c3)cc2)C1=O,104 µL/min/mg,0.367 h,,,0.222 h,2.1 h,11 µL/min/mg,,,,65 µL/min/mg,
CCCCCN1CCN(c2ccc(S(=O)(=O)Oc3cc(Cl)cc(Cl)c3)cc2)C1=O,12.5 µL/min/mg,2.67 h,>100,50 nM,1.85 h,2 h,12 µL/min/mg,>100,> 5000 nM,> 5000 nM,9 µL/min/mg,IC50 (HT-1080 [1]): > 5000 nM; Activity (MCF7 [19]): 17%; Ki (Cytochrome P450 1A1): 1200 nM; Activity (MCF7 [20]): 34%; Ratio IC50 [9]: >167; Ratio IC50 [11]: 152; IC50 (HT-1080 [12]): 4570 nM; IC50 (HT-1080 [15]): 30 nM; Activity (MCF7 [21]): 49%; Activity (Tubulin (Homo sapiens) [22]): Active
CCCCN1CCN(c2ccc(S(=O)(=O)Oc3cccc(I)c3)cc2)C1=O,109 µL/min/mg,0.212 h,,,0.205 h,1.67 h,14 µL/min/mg,,,,109 µL/min/mg,
CCCCCN1CCN(c2ccc(S(=O)(=O)Oc3cccc(Cl)c3)cc2)C1=O,11 µL/min/mg,1.83 h,>31,400 nM,2.17 h,4.83 h,5 µL/min/mg,>31,> 12500 nM,> 12500 nM,12 µL/min/mg,IC50 (HT-1080 [1]): > 12500 nM; Ki (Cytochrome P450 1A1): 600 nM; Activity (MCF7 [23]): 45%; Activity (Tubulin (Homo sapiens) [24]): Active; Activity (MCF7 [25]): 13%; Activity (MCF7 [26]): 42%; Ratio IC50 [9]: >139; Ratio IC50 [11]: 76; IC50 (HT-1080 [12]): 6850 nM; IC50 (HT-1080 [15]): 90 nM
O=c1cc(-c2ccccc2)oc2c1ccc1ccccc12 [ALPHA-NAPHTHOFLAVONE],,,,,,,,,,,,Ki (Cytochrome P450 1A1): 50 nM
CCCCCCN1CCN(c2ccc(S(=O)(=O)Oc3cc(Cl)cc(Cl)c3)cc2)C1=O,,,>5,250 nM,,,,>5,> 1250 nM,> 1250 nM,,
CCCCN1CCN(c2ccc(S(=O)(=O)Oc3cc(Cl)cc(Cl)c3)cc2)C1=O,90 µL/min/mg,0.783 h,,,0.257 h,1.48 h,16 µL/min/mg,,,,29 µL/min/mg,
CCCCCCN1CCN(c2ccc(S(=O)(=O)Oc3cc(Br)cc(Br)c3)cc2)C1=O,,,6.1,120 nM,,,,>10,> 1250 nM,730 nM,,
CCCCCN1CCN(c2ccc(S(=O)(=O)Oc3cccc(OC)c3)cc2)C1=O,,,>48,260 nM,,,,>48,> 12500 nM,> 12500 nM,,
CCCCCCN1CCN(c2ccc(S(=O)(=O)Oc3cc(OC)c(OC)c(OC)c3)cc2)C1=O,,,>18,140 nM,,,,>18,> 2500 nM,> 2500 nM,,
CCCCN1CCN(c2ccc(S(=O)(=O)Oc3cc(OC)cc(OC)c3)cc2)C1=O,133 µL/min/mg,1.55 h,,,0.175 h,1.12 h,20.7 µL/min/mg,,,,15 µL/min/mg,
CCCCCN1CCN(c2ccc(S(=O)(=O)Oc3cccc(Br)c3)cc2)C1=O,,,>42,300 nM,,,,>42,> 12500 nM,> 12500 nM,,
CCCN1CCN(c2ccc(S(=O)(=O)Oc3cc(OC)c(OC)c(OO)c3)cc2)C1=O,174 µL/min/mg,1.18 h,,,0.133 h,1.82 h,13 µL/min/mg,,,,19.5 µL/min/mg,
